Earlier results on one molecule are cited in patent US10098846B2, “Drug-containing particulate composition with cationic agent, associated medical devices, and methods for treatment” (Surmodics, Inc., priority 2016, dated 2018).

Structures are written as SMILES.

Consider `CO[C@H]1C[C@@H]2CC[C@@H](C)[C@@](O)(O2)C(=O)C(=O)N2CCCC[C@H]2C(=O)O[C@H]([C@H](C)C[C@@H]2CC[C@@H](O)[C@H](OC)C2)CC(=O)[C@H](C)/C=C(\C)[C@@H](O)[C@@H](OC)C(=O)[C@H](C)C[C@H](C)/C=C/C=C/C=C/1C` [Rapamycin, rapamycin], for which the “solubility in N,N-dimethylformamide” value (N,N-dimethylformamide) is “soluble”. Moreover, the solubility in acetone result (acetone) was “soluble”. Further, the solubility in ether result (ether) was “soluble”. Besides, for the setting “water”, the solubility in water entry was “insoluble”.
